# Patent US20240115745A1, “COMPOUNDS COMPRISING A FIBROBLAST ACTIVATION PROTEIN LIGAND AND USE THEREOF” (3B PHARMACEUTICALS GMBH, priority 2021, published 2024)
# Like-named read-outs stand apart in the source and are kept apart here. *1 amine or outer side, *2 acyl side, *3 side chain or, on linkers, in order; H or OH if unused. Where a SMILES comes first, the peptide text is derived from it. Bridges are numbered along the chain shown (N, C = ends). [ ]: non-standard residue; d: D form. The star is where a group is joined. X4 = O=C(O)CN1CCN(CC(=O)O)CCN(CC(=O)NCCCOCCOCCOCCCN*)CCN(CC(=O)O)CC1; X1 = NC(=O)CC[C@H](N[*:1])C(=O)C[C@@H](Cc1ccccc1)C(=O)[*:2]; X11 = O=C(O)CN1CCN(CC(=O)O)CCN([C@H](CCC(=O)*)C(=O)O)CC1; DOTA = O=C(O)CN1CCN(CC(=O)O)CCN(CC(=O)*)CCN(CC(=O)O)CC1; Maleimide(3,4-diyl) = O=C1NC(=O)C([*:2])=C1[*:1]; X9 = O=C(C1CCC[C@H]1C(=O)[*:2])[C@@H]1CCCN1[*:1]; X8 = NCCNCC(CNCCN)C(=O)NCCCOCCOCCOCCCN*; Suc = O=C(CCC(=O)[*:2])[*:1]; 4Amb = NCc1ccc(C(=O)O)cc1; hCys = N[C@@H](CCS)C(=O)O; Nle = CCCC[C@H](N)C(=O)O; X3 = NCCNCC(CNCCN)C(=O)*; Hexanoyl = CCCCCC(=O)*; AEEA = NCCOCCOCC(=O)O; βAla = NCCC(=O)O
# How the values were obtained:
# [1] = target: T1, Recombinant human FAP (Homo sapiens, UniProt Q12884); assay: FRET-based FAP protease activity assay; format: biochemical
# T1 construct: purchased R&D systems 3715-SE
# [2] = target: T2, FAP-expressing human WI-38 fibroblasts (Homo sapiens, UniProt Q12884); assay: Competitive FACS binding assay;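 further: flow cytometry read-out of median Cy5 fluorescence on the cells, plotted versus test compound concentration, with IC50 derived by four-parameter logistic curve fitting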
# T2 construct: FAP-expressing human WI-38 fibroblasts (ECACC) were cultured in EMEM; host or cells: WI-38 human fibroblasts
# [3] = recombinant human FAP, FRET-peptide substrate, 37° C., read-out: pIC50 Category (Activity) (converted)
# [4] = competition with 3 nM Cy5-labeled compound, WI-38 fibroblasts, 4° C., 1 hour, read-out: pIC50 Category (FACS) (converted)
# [5] = read-out: pIC50 (highest activity categories, FAP activity) (converted)
# [6] = read-out: pIC50 (highest activity categories, FACS binding) (converted)
# T2 sequence (Q12884 whole entry): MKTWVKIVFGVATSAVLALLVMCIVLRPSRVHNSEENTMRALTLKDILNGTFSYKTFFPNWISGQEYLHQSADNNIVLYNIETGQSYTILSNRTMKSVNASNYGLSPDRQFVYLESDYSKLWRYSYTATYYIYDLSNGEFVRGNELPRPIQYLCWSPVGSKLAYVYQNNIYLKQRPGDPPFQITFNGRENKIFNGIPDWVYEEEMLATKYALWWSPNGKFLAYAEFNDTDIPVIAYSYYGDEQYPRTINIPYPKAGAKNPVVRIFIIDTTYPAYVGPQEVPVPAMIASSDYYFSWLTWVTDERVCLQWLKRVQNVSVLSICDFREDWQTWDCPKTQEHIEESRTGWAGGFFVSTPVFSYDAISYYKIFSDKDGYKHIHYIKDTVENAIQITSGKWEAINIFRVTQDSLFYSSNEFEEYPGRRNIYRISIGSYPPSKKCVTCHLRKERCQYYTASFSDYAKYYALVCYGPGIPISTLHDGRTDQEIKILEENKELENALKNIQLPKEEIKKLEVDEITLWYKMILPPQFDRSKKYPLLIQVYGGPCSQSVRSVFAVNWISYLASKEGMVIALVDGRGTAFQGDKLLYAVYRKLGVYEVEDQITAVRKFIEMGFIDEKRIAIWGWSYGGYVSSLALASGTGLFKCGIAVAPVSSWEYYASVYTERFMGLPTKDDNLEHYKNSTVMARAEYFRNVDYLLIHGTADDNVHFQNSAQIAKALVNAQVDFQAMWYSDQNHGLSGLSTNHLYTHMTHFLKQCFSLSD
# T1 sequence (Q12884 26-760 limits assumed): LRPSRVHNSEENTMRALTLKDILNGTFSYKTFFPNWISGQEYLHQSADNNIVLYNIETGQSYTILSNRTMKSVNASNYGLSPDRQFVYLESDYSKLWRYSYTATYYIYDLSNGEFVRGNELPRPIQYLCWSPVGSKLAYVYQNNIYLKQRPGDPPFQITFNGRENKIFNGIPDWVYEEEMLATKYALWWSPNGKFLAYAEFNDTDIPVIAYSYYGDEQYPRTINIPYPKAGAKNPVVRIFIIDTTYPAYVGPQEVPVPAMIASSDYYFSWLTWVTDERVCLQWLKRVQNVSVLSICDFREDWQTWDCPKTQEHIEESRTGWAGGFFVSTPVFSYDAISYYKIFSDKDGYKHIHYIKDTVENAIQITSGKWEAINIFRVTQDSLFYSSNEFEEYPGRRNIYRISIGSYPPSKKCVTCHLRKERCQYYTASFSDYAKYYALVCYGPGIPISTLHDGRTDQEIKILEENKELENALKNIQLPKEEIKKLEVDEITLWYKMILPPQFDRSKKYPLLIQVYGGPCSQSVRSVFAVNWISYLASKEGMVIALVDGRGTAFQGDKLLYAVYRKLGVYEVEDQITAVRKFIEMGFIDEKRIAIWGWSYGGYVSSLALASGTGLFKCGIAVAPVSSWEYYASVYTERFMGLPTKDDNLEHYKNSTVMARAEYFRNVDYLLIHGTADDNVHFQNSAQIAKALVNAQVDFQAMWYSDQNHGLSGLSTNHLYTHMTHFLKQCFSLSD
"IC50 [1, 3] [nM]","IC50 [2, 4] [nM]","IC50 [1, 5] [nM]","IC50 [2, 6] [nM]",SMILES
< 100,< 100,–,–,"CCCC[C@H](NC(=O)CCC(=O)NCCCOCCOCCOCCCNC(=O)C(CNCCN)CNCCN)C(=O)N[C@H]1CSSC[C@@H](C(=O)NCCC(=O)O)NC(=O)[C@H](Cc2ccccc2)NC(=O)[C@H](CCC(N)=O)NC(=O)[C@H]([C@@H](C)O)NC(=O)[C@@H]2CCCC2C(=O)[C@@H]2CCCN2C1=O (stereo partly drawn) [Compound 1019, N4Ac-Ttds-Nle-[Cys-Pro-Pro-Thr-Gln-Phe-Cys]-Bal-OH] ({X8-Suc}-[Nle]C[X9]TQFC[βAla]-OH; disulfide 2-7)"
< 100,< 100,–,–,"CCCCCC(=O)N[C@H]1CSSC[C@@H](C(=O)N[C@@H](CC(=O)O)C(=O)N[C@@H](CCCCNC(=O)CC[C@H](C(=O)O)N2CCN(CC(=O)O)CCN(CC(=O)O)CC2)C(N)=O)NC(=O)[C@H](Cc2ccccc2)NC(=O)[C@H](CCC(=O)O)NC(=O)[C@H]([C@@H](C)O)NC(=O)[C@@H]2CCCN2C(=O)[C@@H]2CCCN2C1=O [Compound 1020, Hex-[Cys-Pro-Pro-Thr-Glu-Phe-Cys]-Asp-Lys(NODAGA)-NH2] (Hexanoyl-CPPTEFCDK(X11)-NH2; disulfide 1-7)"
< 100,< 100,–,–,"CCCCCC(=O)N[C@H]1CSSC[C@@H](C(=O)N[C@@H](CC(=O)O)C(=O)N[C@@H](CCCCNC(=O)C(CNCCN)CNCCN)C(N)=O)NC(=O)[C@H](Cc2ccccc2)NC(=O)[C@H](CCC(=O)O)NC(=O)[C@H]([C@@H](C)O)NC(=O)[C@@H]2CCCN2C(=O)[C@@H]2CCCN2C1=O [Compound 1021, Hex-[Cys-Pro-Pro-Thr-Glu-Phe-Cys]-Asp-Lys(N4Ac)—NH2] (Hexanoyl-CPPTEFCDK(X3)-NH2; disulfide 1-7)"
< 100,< 100,–,–,"CCCCCC(=O)N[C@H]1CSC2=C(SC[C@@H](C(=O)N[C@@H](CC(=O)O)C(N)=O)NC(=O)[C@H](Cc3ccccc3)NC(=O)[C@H](CCC(N)=O)NC(=O)[C@H]([C@@H](C)O)NC(=O)[C@@H]3CCCN3C(=O)[C@@H]3CCCN3C1=O)C(=O)NC2=O [Compound 2001, Hex-[Cys(mli)-Pro-Pro-Thr-Gln-Phe-Cys]-Asp-NH2] (HELM PEPTIDE1{[CCCCCC(=O)[*:2]].C.P.P.T.Q.F.C.D.[am]}|CHEM1{[O=C1NC(=O)C([*:2])=C1[*:1]]}$PEPTIDE1,CHEM1,2:R3-1:R1|PEPTIDE1,CHEM1,8:R3-1:R2$$$V2.0)"
< 100,< 100,–,–,"CCCCCC(=O)N[C@H]1CCSSCC[C@@H](C(=O)N[C@@H](CC(=O)O)C(N)=O)NC(=O)[C@H](Cc2ccccc2)NC(=O)[C@H](CCC(N)=O)NC(=O)[C@H]([C@@H](C)O)NC(=O)[C@@H]2CCCN2C(=O)[C@@H]2CCCN2C1=O [Compound 2002, Hex-[Hcy-Pro-Pro-Thr-Gln-Phe-Hcy]-Asp-NH2] (Hexanoyl-[hCys]PPTQF[hCys]D-NH2; disulfide 1-7)"
< 100,< 100,–,–,"CCCC[C@H](NC(=O)CN1CCN(CC(=O)O)CCN(CC(=O)O)CCN(CC(=O)O)CC1)C(=O)N[C@H]1CSC2=C(SC[C@@H](C(=O)N[C@@H](CC(=O)O)C(N)=O)NC(=O)[C@H](Cc3ccccc3)CC(=O)[C@H](CCC(N)=O)NC(=O)[C@H]([C@@H](C)O)NC(=O)[C@@H]3CCCN3C(=O)[C@@H]3CCCN3C1=O)C(=O)NC2=O [Compound 2003, DOTA-Nle-[Cys(mli)-Pro-Pro-Thr-Gln-Phe-Cys]-Asp-NH2] ({DOTA}-[Nle]CPPT[X1]CD-NH2; linker 2-7 via Maleimide(3,4-diyl))"
< 100,< 100,< 100,< 100,"CCCC[C@H](NC(=O)COCCOCCNC(=O)CN1CCN(CC(=O)O)CCN(CC(=O)O)CCN(CC(=O)O)CC1)C(=O)N[C@H]1CSC2=C(SC[C@@H](C(=O)N[C@@H](CC(=O)O)C(N)=O)NC(=O)[C@H](Cc3ccccc3)CC(=O)[C@H](CCC(N)=O)NC(=O)[C@H]([C@@H](C)O)NC(=O)[C@@H]3CCCN3C(=O)[C@@H]3CCCN3C1=O)C(=O)NC2=O [Compound 2004, DOTA-O2Oc-Nle-[Cys(mli)-Pro-Pro-Thr-Gln-Phe-Cys]-Asp-NH2] ({DOTA-AEEA}-[Nle]CPPT[X1]CD-NH2; linker 2-7 via Maleimide(3,4-diyl))"
< 100,< 100,< 100,< 100,"CCCC[C@H](NC(=O)CCC(=O)NCCCOCCOCCOCCCNC(=O)CN1CCN(CC(=O)O)CCN(CC(=O)O)CCN(CC(=O)O)CC1)C(=O)N[C@H]1CSC2=C(SC[C@@H](C(=O)N[C@@H](CC(=O)O)C(N)=O)NC(=O)[C@H](Cc3ccccc3)CC(=O)[C@H](CCC(N)=O)NC(=O)[C@H]([C@@H](C)O)NC(=O)[C@@H]3CCCN3C(=O)[C@@H]3CCCN3C1=O)C(=O)NC2=O [Compound 2005, DOTA-Ttds-Nle-[Cys(mli)-Pro-Pro-Thr-Gln-Phe-Cys]-Asp-NH2]"
< 100,< 100,–,–,"CCCC[C@H](NC(=O)CCC(=O)NCCCOCCOCCOCCCNC(=O)CN1CCN(CC(=O)O)CCN(CC(=O)O)CCN(CC(=O)O)CC1)C(=O)N[C@H]1CSC2=C(SC[C@@H](C(=O)N[C@@H](CC(=O)O)C(=O)NCc3ccc(C(=O)N[C@@H](CCCNC(=N)N)C(N)=O)cc3)NC(=O)[C@H](Cc3ccccc3)CC(=O)[C@H](CCC(N)=O)NC(=O)[C@H]([C@@H](C)O)NC(=O)[C@@H]3CCCN3C(=O)[C@@H]3CCCN3C1=O)C(=O)NC2=O [Compound 2006, DOTA-Ttds-Nle-[Cys(mli)-Pro-Pro-Thr-Gln-Phe-Cys]-Asp-Pamb-Arg-NH2] ({X4-Suc}-[Nle]CPPT[X1]CD[4Amb]R-NH2; linker 2-7 via Maleimide(3,4-diyl))"
< 100,< 100,–,–,"CCCC[C@H](NC(=O)CCC(=O)NCCCOCCOCCOCCCNC(=O)CN1CCN(CC(=O)O)CCN(CC(=O)O)CCN(CC(=O)O)CC1)C(=O)N[C@H]1CSC2=C(SC[C@@H](C(=O)O)NC(=O)[C@H](Cc3ccccc3)CC(=O)[C@H](CCC(N)=O)NC(=O)[C@H]([C@@H](C)O)NC(=O)[C@@H]3CCCN3C(=O)[C@@H]3CCCN3C1=O)C(=O)NC2=O [Compound 2008, DOTA-Ttds-Nle-[Cys(mli)-Pro-Pro-Thr-Gln-Phe-Cys]-OH]"
< 100,< 100,–,–,"CCCC[C@H](NC(=O)CCC(=O)NCCCOCCOCCOCCCNC(=O)CN1CCN(CC(=O)O)CCN(CC(=O)O)CCN(CC(=O)O)CC1)C(=O)N[C@H]1CSC2=C(SC[C@@H](C(=O)NCCC(=O)O)NC(=O)[C@H](Cc3ccccc3)CC(=O)[C@H](CCC(N)=O)NC(=O)[C@H]([C@@H](C)O)NC(=O)[C@@H]3CCCN3C(=O)[C@@H]3CCCN3C1=O)C(=O)NC2=O [Compound 2009, DOTA-Ttds-Nle-[Cys(mli)-Pro-Pro-Thr-Gln-Phe-Cys]-Bal-OH]"
< 100,< 100,–,–,"CCCCCC(=O)N[C@H]1CSC2=C(SC[C@@H](C(=O)N[C@@H](CCCCNC(=O)CN3CCN(CC(=O)O)CCN(CC(=O)O)CCN(CC(=O)O)CC3)CC(=O)O)NC(=O)[C@H](Cc3ccccc3)NC(=O)[C@H](CCC(N)=O)NC(=O)[C@H]([C@@H](C)O)NC(=O)[C@@H]3CCCN3C(=O)[C@@H]3CCCN3C1=O)C(=O)NC2=O [Compound 2010, Hex-[Cys(mli)-Pro-Pro-Thr-Gln-Phe-Cys]-Bhk(DOTA)-OH]"
